Data set [1] can be described thus: Anticancer activity against human KATO III stomach cancer cell line assessed as cell growth inhibition measured after 3 days by CCK-8 assay. The data set is classed as functional. The note with it: 72 h, time 3 day.
In data set [2] the test system is PANC-1. The data set is described as follows: Anticancer activity against human PANC-1 cells assessed as cell growth inhibition measured after 3 days by CCK-8 assay. Format: functional. The note with it: PANC-1, 72 h, time 3 day. A general note: Formazan colour is commonly taken as a measure of viable cells.
The test system of data set [3] is SK-OV-3. The data set is described as follows: Anticancer activity against human SK-OV-3 cells assessed as cell growth inhibition measured after 3 days by CCK-8 assay. The data set is classed as functional. The note with it: SK-OV-3, 72 h, time 3 day.
Data set [4] has as its system K562. The data set can be described thus: Anticancer activity against human K562 cells assessed as cell growth inhibition measured after 3 days by CCK-8 assay. The note with it: K562, 72 h, time 3 day. Format: functional.
Data set [5] has as its system Rattus norvegicus. The data set is described as follows: Antiinflammatory activity in formalin induced Wistar rat paw oedema model assessed as inhibition of paw oedema administered up to 6 hrs by plethysmograph analysis. The data set is classed as functional, organism-based. On the set-up: scale not given: the % may be the effect or the level left.
Data set [6] has as its system MCF7. The data set can be described thus: Anticancer activity against human MCF7 cells assessed as cell growth inhibition measured after 48 hrs by sulforhodamine B staining based analysis. The data set is classed as functional.
The test system of data set [7] is NCI-H460. The data set can be described thus: Anticancer activity against human NCI-H460 cells assessed as cell growth inhibition measured after 48 hrs by sulforhodamine B staining based analysis. Format: functional.
Data set [8] relates to SF-268. The data set is described as follows: Anticancer activity against human SF-268 cells assessed as cell growth inhibition measured after 48 hrs by sulforhodamine B staining based analysis. The data set is classed as functional. (In SRB staining, fixed cells bind dye roughly in proportion to their protein.)
The nature of data set [9]: Cytotoxicity against human WI-38 cells assessed as cell growth inhibition measured after 48 hrs by sulforhodamine B staining based analysis. Format: toxicity.
The subject of data set [10] is Salmonella typhi. The data set can be described thus: Antibacterial activity against Salmonella typhi ATCC 11778 assessed as bacterial growth inhibition at 50 ug/ml incubated for 24 hrs relative to control. Format: functional, Salmonella enterica subsp. enterica serovar Typhi. Also noted: scale not given: the % may be the effect or the level left. The note with it: dose 50 µg/ml.

The subject of data set [11] is Shigella dysenteriae. The data set is described as follows: Antibacterial activity against Shigella dysenteriae ATCC 49345 assessed as bacterial growth inhibition at 50 ug/ml incubated for 24 hrs relative to control. The note with it: dose 50 µg/ml. The data set is classed as functional. On the set-up: scale not given: the % may be the effect or the level left.
Data set [12] relates to Staphylococcus aureus. The data set can be described thus: Antibacterial activity against Staphylococcus aureus assessed as zone of inhibition at 1000 ug/ml measured after 24 hrs by cup plate method. The note with it: read-out: DIZ. Format: functional.
The test system of data set [13] is Bacillus subtilis. The data set can be described thus: Antibacterial activity against Bacillus subtilis assessed as zone of inhibition at 1000 ug/ml measured after 24 hrs by cup plate method. Format: functional. The note with it: read-out: DIZ.
Data set [14] has as its system Pseudomonas aeruginosa. The data set is described as follows: Antibacterial activity against Pseudomonas aeruginosa assessed as zone of inhibition at 1000 ug/ml measured after 24 hrs by cup plate method. Format: functional. The note with it: read-out: DIZ.
Data set [15] deals with Escherichia coli. The data set is described as follows: Antibacterial activity against Escherichia coli assessed as zone of inhibition at 1000 ug/ml measured after 24 hrs by cup plate method. The note with it: read-out: DIZ. The data set is classed as functional.
The test system of data set [16] is Aspergillus niger. The data set is described as follows: Antifungal activity against Aspergillus niger assessed as zone of inhibition at 1000 ug/ml measured after 24 hrs by cup plate method. The data set is classed as functional. The note with it: read-out: DIZ.
For data set [17], the system named is Aspergillus flavus. The data set is described as follows: Antifungal activity against Aspergillus flavus assessed as zone of inhibition at 1000 ug/ml measured after 24 hrs by cup plate method. The note with it: read-out: DIZ. The data set is classed as functional.
Data set [18] deals with Aspergillus terreus. The data set is described as follows: Antifungal activity against Aspergillus terreus assessed as zone of inhibition at 1000 ug/ml measured after 24 hrs by cup plate method. The data set is classed as functional. The note with it: read-out: DIZ.
In data set [19] the test system is Rattus norvegicus. The data set is described as follows: Antiinflammatory activity in formalin induced fasted albino rat paw oedema model assessed as inhibition of paw oedema at 100 mg/kg, po measured after 4 hrs by plethysmograph analysis relative to control. Format: functional. Also noted: scale not given: the % may be the effect or the level left.
Data set [20] deals with Hepatitis C virus. The data set can be described thus: Antiviral activity against HCV GT-1b infected in human Huh-5-2 cells carrying HCV subgenomic replicons assessed as inhibition of viral replication by quantitative RT-PCR assay. The note with it: subtype 1b. The data set is classed as functional, organism-based, Hepacivirus hominis. For orientation: Replicon systems follow genome replication, usually without infectious particles.

In data set [21] the target is Carbonic anhydrase 1 (Homo sapiens, UniProt P00915). The data set is described as follows: Inhibition of human carbonic anhydrase-1 by stopped flow CO2 hydrase assay.
Carbonic anhydrase 1, sequence (P00915 whole entry): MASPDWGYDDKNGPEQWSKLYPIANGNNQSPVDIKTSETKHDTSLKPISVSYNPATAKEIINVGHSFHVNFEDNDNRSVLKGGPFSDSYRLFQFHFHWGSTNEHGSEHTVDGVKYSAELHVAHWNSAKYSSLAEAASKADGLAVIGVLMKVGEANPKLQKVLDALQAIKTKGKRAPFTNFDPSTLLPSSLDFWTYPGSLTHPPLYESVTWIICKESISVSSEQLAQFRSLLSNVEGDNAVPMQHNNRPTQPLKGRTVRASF
In data set [22] the target is Carbonic anhydrase 2 (Homo sapiens, UniProt P00918). The data set can be described thus: Inhibition of human carbonic anhydrase-2 by stopped flow CO2 hydrase assay.
In data set [23] the test system is Rattus norvegicus. The data set can be described thus: Antiinflammatory activity in carrageenan induced rat paw oedema model assessed as inhibition of paw oedema, ip pretreated with compound for 30 mins followed by carrageenan injection measured after 3 hrs relative to control. Format: functional. Also noted: scale not given: the % may be the effect or the level left. The note with it: time 3.5 hrs.

The subject of data set [24] is Sprivivirus cyprinus. The data set can be described thus: Antiviral activity against Carp sprivivirus infected Fathead minnow EPC cells assessed as assessed as suppression of virus-induced cytopathic effect incubated for 48 hrs by CCK-8 assay. The data set is classed as functional, organism-based.
The nature of data set [25]: Anticancer activity against mouse L1210/0 cells assessed as cell growth inhibition measured after 3 days by CCK-8 assay. Format: functional, cell-based. The note with it: L1210/0, 72 h.
Data set [26] deals with MOLT-4. The data set is described as follows: Anticancer activity against human Molt4/C8 cells assessed as cell growth inhibition measured after 3 days by CCK-8 assay. The note with it: MOLT-4, 72 h. The data set is classed as functional, cell-based.
For data set [27], the system named is CCRF-CEM. The data set can be described thus: Anticancer activity against human CEM/0 cells assessed as cell growth inhibition measured after 3 days by CCK-8 assay. The data set is classed as functional, cell-based. The note with it: 72 h.
For data set [28], the system named is HeLa. The data set is described as follows: Anticancer activity against human HeLa cells assessed as cell growth inhibition by SRB method. The data set is classed as functional.

In brackets after ≈: the same amount, converted by molar mass.

In the case of `CCN(CC)c1ccc2cc(-c3nc4ccccc4n3C)c(=O)oc2c1`, the GI50 (as a rule, the concentration that inhibits growth by half) turned out to be 0.1 µM in [1], 0.1 µM in [2], 0.07 µM in data set [3] and 0.07 µM in data set [4].

For the compound `O=c1oc2ccc(Cl)cc2cc1-c1nc2ccccc2[nH]1`, in [5], the Activity came out at 46.75%.

Turning to `O=c1oc2ccccc2cc1-c1nc2ccccc2n1C(=S)Nc1ccccc1`, the GI50 was 0.08 µM in [6], 0.05 µM in [7] and 0.06 µM in data set [8]. In data set [9], the GI50 at 48 h was found to be 28 µM.

`O=c1oc2ccc(Br)cc2cc1-c1nc2ccccc2[nH]1`: in data set [5], the Activity came to 45.45%.

Take `O=c1oc2ccccc2cc1CSc1nc2ccccc2[nH]1`: the Activity in data set [10] and in data set [11] was 100% each time.

As for `Cc1c(/C=N/Nc2nc3ccccc3[nH]2)c(=O)oc2cc(O)ccc12`, the zone of inhibition at 1000 µg/mL in data set [12], in [13], in [14], in data set [15], in [16] and in data set [17] was 13 mm each time. The zone of inhibition at 1000 µg/mL in data set [18] amounted to 13 mm. In [19], the Activity is 37%.

With `Cc1ccc2nc(SCc3cc4ccccc4oc3=O)[nH]c2c1`, the Activity in data set [10] and in data set [11] was 100% in each case.

For the compound `CC(=O)OC[C@H]1O[C@@H](n2c(SCc3cc4cc(Br)ccc4oc3=O)nc3ccccc32)[C@H](OC(C)=O)[C@@H](OC(C)=O)[C@@H]1OC(C)=O`, the EC50 (commonly the concentration that produces a half-maximal response) in data set [20] is 4.1 µM.

With `O=c1cc(Cn2c[n+](CCCCn3c[n+](Cc4cc(=O)oc5cc(O)ccc45)c4ccccc43)c3ccccc32)c2ccc(O)cc2o1`, the results for the IC50 in [21] and in data set [22] were 81 µM and 94 µM, respectively.

`O=c1cc(Cc2nc3ccccc3[nH]2)c2ccccc2o1`: the Activity in [23] turned out to be 45%.

On to `O=c1cc(Cn2c[n+](CCCCCn3c[n+](Cc4cc(=O)oc5cc(O)ccc45)c4ccccc43)c3ccccc32)c2ccc(O)cc2o1`, for which the IC50 (usually the concentration at which inhibition is half-maximal) was determined as 99 µM in data set [21] and 89 µM in [22].

With `O=c1cc(C[n+]2cn(Cc3ccc4ccccc4c3)c3ccccc32)c2ccc(O)c(O)c2o1`, the IC50 in [21] amounted to 4.99 µM; in [22] it was 6.01 µM.

As to `O=c1ccc2cc(OCCCn3cnc4ccccc43)ccc2o1`, the concentration for half-maximal inhibition (IC50) in data set [24] stood at 2.2 µg/mL (≈ 6.87 µM).

For `O=c1oc2ccc(Cl)cc2cc1-c1nc2cc(Cl)ccc2[nH]1`, the IC50 in [25] is 0.67 µg/mL (≈ 2.02 µM); in [26], 0.44 µg/mL (≈ 1.33 µM); in [27], 0.42 µg/mL (≈ 1.27 µM).

With `Cc1ccc(S(=O)(=O)n2c(-c3cc(=O)oc4ccc(C)cc34)nc3ccccc32)cc1`, the GI50 in [28] was 35 µg/mL (≈ 81.3 µM).

Turning to `Cc1ccc2c(Cc3nc4ccccc4[nH]3)cc(=O)oc2c1`, in data set [23], the Activity turned out to be 45%.

Consider `O=c1oc2ccccc2c2c(O)cn3c4ccccc4nc3c12`, for which the GI50 in data set [6] was 24.1 µM; in [7], 30.8 µM; in [8], 26.1 µM. For the same compound, the GI50 at 48 h in [9] was determined as 25.2 µM.

With `Cc1cn2c3ccccc3nc2c2c(=O)oc3ccccc3c12`, the GI50 in data set [6] is 26.6 µM; in [7], 29.3 µM; in [8], 18.4 µM. In addition, the GI50 at 48 h in data set [9] came out at 68.2 µM.

Turning to `Cc1ccc2oc(=O)c(-c3nc4cc(Cl)ccc4[nH]3)cc2c1`, the IC50 in [25] came out at 5.1 µg/mL (≈ 16.4 µM); in data set [26], 3.6 µg/mL (≈ 11.6 µM); in [27], 1.9 µg/mL (≈ 6.11 µM).

The record behind these values is ChEMBL document CHEMBL5126506, “Coumarin-benzimidazole hybrids: A review of developments in medicinal chemistry” (Eur J Med Chem, 2022).
